Experimental data as given in patent US20100093714A1, “AMIDES OF THIENO[2,3-d]PYRIMIDINE AND THEIR USE AS ADENOSINE A2a RECEPTOR ANTAGONISTS” (priority 2008, published 2010).
Structures can show the parent of a compound that is named as a salt.

Legend:
[1] = biological target: T1, human adenosine A2a receptor (Homo sapiens, UniProt P29274); experiment: Adenosine A2a Receptor Functional Assay (A2AGAL2); assay type: cell-based; conditions: CHO-K1 cells, cAMP inducible beta-galactosidase reporter, 15 nM NECA agonist challenge
T1 construct: expressed in transfected cells; host or cells: CHO-K1
Experimental: (§1) To initiate the functional assay, cryopreserved CHO-K1 cells overexpressing the human adenosine A2a receptor and containing a cAMP inducible beta-galactosidase reporter gene were thawed, centrifuged, DMSO containing media removed, and then seeded with fresh culture media into clear 384-well tissue culture treated plates (BD #353961) at a concentration of 10K cells/well. Prior to assay, these plates were cultured for two days at 37° C., 5% CO2, 90% Rh. On the day of the functional assay, culture media was removed and replaced with 45 uL assay medium (Hams/F-12 Modified (Mediatech #10-080CV) supplemented w/0.1% BSA). Test compounds were diluted and 11 point curves created at a 1000× concentration in 100% DMSO. Immediately after addition of assay media to the cell plates, 50 nL of the appropriate test compound antagonist or agonist control curves were added to cell plates using a Cartesian Hummingbird. Compound curves were allowed to incubate at room temperature on cell plates for approximately 15 minutes before addition of a 15 nM NECA (Sigma E2387) agonist challenge (5 uL volume). A control curve of NECA, a DMSO/Media control, and a single dose of Forskolin (Sigma F3917) were also included on each plate. After additions, cell plates were allowed to incubate at 37° C., 5% CO2, 90% Rh for 5.5-6 hours. After incubation, media was removed, and cell plates were washed 1×50 uL with DPBS w/o Ca & Mg (Mediatech 21-031-CV). Into dry wells, 20 uL of 1× Reporter Lysis Buffer (Promega E3971 (diluted in dH2O from 5× stock)) was added to each well and plates frozen at −20° C. overnight. For β-galactosidase enzyme calorimetric assay, plates were thawed out at room temperature and 20 μL 2× assay buffer (Promega) was added to each well. Color was allowed to develop at 37° C., 5% CO2, 90% Rh for 1-1.5 h or until reasonable signal appeared. The calorimetric reaction was stopped with the addition of 60 μL/well 1M sodium carbonate. Plates were counted at 405 nm on a SpectraMax Microplate Reader (Molecular Devices). Data was analyzed in Microsoft Excel and IC/EC50 curves were fit using a standardized macro.

[2] = biological target: T2, human adenosine A1 receptor (Homo sapiens, UniProt P30542); experiment: Adenosine A1 Receptor Functional Assay (A1GAL2); assay type: cell-based; conditions: CHO-K1 cells, cAMP inducible beta-galactosidase reporter, 4nM r-PIA/1 uM Forskolin agonist challenge
T2 construct: expressed in transfected cells; host or cells: CHO-K1
T2 sequence (P30542 1-326): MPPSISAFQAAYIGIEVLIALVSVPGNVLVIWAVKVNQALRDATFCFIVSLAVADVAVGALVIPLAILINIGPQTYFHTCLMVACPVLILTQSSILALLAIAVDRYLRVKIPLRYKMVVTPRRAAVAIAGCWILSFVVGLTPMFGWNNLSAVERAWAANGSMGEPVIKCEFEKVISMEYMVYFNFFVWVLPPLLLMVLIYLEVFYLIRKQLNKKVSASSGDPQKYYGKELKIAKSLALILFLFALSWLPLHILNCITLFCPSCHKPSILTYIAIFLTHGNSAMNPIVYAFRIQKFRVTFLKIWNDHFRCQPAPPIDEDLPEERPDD
Experimental: as §1, with “A1” for “A2a”, “4nM r-PIA” for “15 nM NECA”, “P4532)/1 uM Forskolin (Sigma F3917)” for “E2387)”, “r-PIA in 1 uM Forskolin,” for “NECA,”, “Forskolin” for “Forskolin (Sigma F3917)”

T1 sequence (P29274 whole entry): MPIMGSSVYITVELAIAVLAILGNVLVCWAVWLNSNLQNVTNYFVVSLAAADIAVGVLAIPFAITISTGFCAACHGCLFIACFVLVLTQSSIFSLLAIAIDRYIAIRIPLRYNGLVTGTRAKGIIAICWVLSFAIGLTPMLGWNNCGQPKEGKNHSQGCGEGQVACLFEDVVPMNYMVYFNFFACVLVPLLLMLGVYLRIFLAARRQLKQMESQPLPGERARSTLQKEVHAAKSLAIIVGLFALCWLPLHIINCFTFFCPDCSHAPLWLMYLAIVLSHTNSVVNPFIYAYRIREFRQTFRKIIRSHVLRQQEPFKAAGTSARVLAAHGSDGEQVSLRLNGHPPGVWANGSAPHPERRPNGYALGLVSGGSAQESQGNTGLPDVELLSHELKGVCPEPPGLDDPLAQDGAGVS

| Ki [1] [nM] | Ki [2] [nM] | Structure (SMILES) |
| --- | --- | --- |
| 184 | 598 | C[C@@H]1CN(C(=O)c2cc3c(N)nc(-c4cccc(C#N)c4)nc3s2)C[C@H](C)O1 [Example 1, 3-[4-Amino-6-(2,6-dimethyl-morpholine-4-carbonyl)-thieno[2,3-d]pyrimidin-2-yl]-benzonitrile] |
| 80.9 | 1430 | Nc1nc(-c2nccs2)nc2sc(C(=O)N3CCOCC3)cc12 [Example 4, (4-Amino-2-thiazol-2-yl-thieno[2,3-d]pyrimidin-6-yl)-morpholin-4-yl-methanone] |
| 361 | > 10000 | Nc1nc(-c2ncco2)nc2sc(C(=O)N3CCOCC3)cc12 [Example 6, (4-Amino-2-oxazol-2-yl-thieno[2,3-d]pyrimidin-6-yl)-morpholin-4-yl-methanone] |
| 193 | ~927 | Cc1csc(-c2nc(N)c3cc(C(=O)NCCN4CCS(=O)(=O)CC4)sc3n2)n1 [Example 7, 4-Amino-2-(4-methyl-thiazol-2-yl)-thieno[2,3-d]pyrimidine-6-carboxylic acid[2-(1,1-dioxo-1-thiomorpholin-4-yl)-ethyl]-amide] |
| 222 | > 1070 | Cc1csc(-c2nc(N)c3cc(C(=O)N4CCN(c5ccncc5)CC4)sc3n2)n1 [Example 8, [4-Amino-2-(4-methyl-thiazol-2-yl)-thieno[2,3-d]pyrimidin-6-yl]-(4-pyridin-4-yl-piperazin-1-yl)-methanone] |
| 94.2 | 603 | CC(C)(C)N1CCN(C(=O)c2cc3c(N)nc(-c4cccc(C#N)c4)nc3s2)CC1 [Example 9, 3-[4-Amino-6-(4-tert-butyl-piperazine-1-carbonyl)-thieno[2,3-d]pyrimidin-2-yl]-benzonitrile] |
| 34.7 | 52.6 | N#Cc1cccc(-c2nc(N)c3cc(C(=O)NCCN4CCOCC4)sc3n2)c1 [Example 10, 4-Amino-2-(3-cyano-phenyl)-thieno[2,3-d]pyrimidine-6-carboxylic acid(2-morpholin-4-yl-ethyl)-amide] |
| 17.9 | 530 | Cc1csc(-c2nc(N)c3cc(C(=O)NCCc4cccnc4)sc3n2)n1 [Example 11, 4-Amino-2-(4-methyl-thiazol-2-yl)-thieno[2,3-d]pyrimidine-6-carboxylic acid(2-pyridin-3-yl-ethyl)-amide] |
| 21.9 | 443 | Cc1csc(-c2nc(N)c3cc(C(=O)NC4CCOCC4)sc3n2)n1 [Example 12, 4-Amino-2-(4-methyl-thiazol-2-yl)-thieno[2,3-d]pyrimidine-6-carboxylic acid(tetrahydro-pyran-4-yl)-amide] |
| 99.2 | > 1000 | Nc1nc(-c2ncco2)nc2sc(C(=O)NC3CCOCC3)cc12 [Example 13, 4-Amino-2-oxazol-2-yl-thieno[2,3-d]pyrimidine-6-carboxylic acid(tetrahydro-pyran-4-yl)-amide] |
| 1550 | > 610 | Nc1nc(-c2ccc(C3CC3)o2)nc2sc(C(=O)NCc3cccnc3)cc12 [Example 14, 4-Amino-2-(5-cyclopropyl-furan-2-yl)-thieno[2,3-d]pyrimidine-6-carboxylic acid(pyridin-3-ylmethyl)-amide] |
| 29 | 113 | N#Cc1cccc(-c2nc(N)c3cc(C(=O)NCc4ccccn4)sc3n2)c1 [Example 15, 4-Amino-2-(3-cyano-phenyl)-thieno[2,3-d]pyrimidine-6-carboxylic acid(pyridin-2-ylmethyl)-amide] |
| 115 | 467 | N#Cc1cccc(-c2nc(N)c3cc(C(=O)NCCc4cccnc4)sc3n2)c1 [Example 16, 4-Amino-2-(3-cyano-phenyl)-thieno[2,3-d]pyrimidine-6-carboxylic acid(2-pyridin-3-yl-ethyl)-amide] |
| 528 | > 923 | Cc1cc(-c2nc(N)c3cc(C(=O)N4CCOCC4)sc3n2)no1 [Example 17, [4-Amino-2-(5-methyl-isoxazol-3-yl)-thieno[2,3-d]pyrimidin-6-yl]-morpholin-4-yl-methanone] |
| 195 | > 948 | CCN1CCN(C(=O)c2cc3c(N)nc(-c4nc(C)cs4)nc3s2)CC1 [Example 18, [4-Amino-2-(4-methyl-thiazol-2-yl)-thieno[2,3-d]pyrimidin-6-yl]-(4-ethyl-piperazin-1-yl)-methanone hydrochloride] |
| 14.2 | 21.9 | N#Cc1cccc(-c2nc(N)c3cc(C(=O)NCc4cccnc4)sc3n2)c1 [Example 19, 4-Amino-2-(3-cyano-phenyl)-thieno[2,3-d]pyrimidine-6-carboxylic acid(pyridin-3-ylmethyl)-amide] |
| 109 | 508 | Cc1csc(-c2nc(N)c3cc(C(=O)NCc4ccc(Cl)nc4)sc3n2)n1 [Example 20, 4-Amino-2-(4-methyl-thiazol-2-yl)-thieno[2,3-d]pyrimidine-6-carboxylic acid(6-chloro-pyridin-3-yl-methyl)-amide hydrochloride] |
| 310 | 26.9 | Cc1cc(-c2nc(N)c3cc(C(=O)NCc4cccnc4)sc3n2)no1 [Example 21, 4-Amino-2-(5-methyl-isoxazol-3-yl)-thieno[2,3-d]pyrimidine-6-carboxylic acid(pyridin-3-ylmethyl)-amide] |
| 367 | > 1310 | Cc1csc(-c2nc(N)c3cc(C(=O)N4CCN(C(C)(C)C)CC4)sc3n2)n1 [Example 23, [4-Amino-2-(4-methyl-thiazol-2-yl)-thieno[2,3-d]pyrimidin-6-yl]-(4-tert-butyl-piperazin-1-yl)-methanone] |
| 137 | 422 | Nc1nc(-c2ncco2)nc2sc(C(=O)NCc3ccccn3)cc12 [Example 24, 4-Amino-2-oxazol-2-yl-thieno[2,3-d]pyrimidine-6-carboxylic acid(pyridin-2-ylmethyl)-amide] |
| 287 | > 1310 | Nc1nc(-c2ncco2)nc2sc(C(=O)NCCN3CCOCC3)cc12 [Example 25, 4-Amino-2-oxazol-2-yl-thieno[2,3-d]pyrimidine-6-carboxylic acid(2-morpholin-4-yl-ethyl)-amide] |
| 92.9 | > 1310 | Nc1nc(-c2nc(C(F)(F)F)cs2)nc2sc(C(=O)N3CCOCC3)cc12 [Example 26, [4-Amino-2-(4-trifluoromethyl-thiazol-2-yl)-thieno[2,3-d]pyrimidin-6-yl]-morpholin-4-yl-methanone] |
| 40.3 | 245 | Cc1csc(-c2nc(N)c3cc(C(=O)NCc4cccnc4)sc3n2)n1 [Example 27, 4-Amino-2-(4-methyl-thiazol-2-yl)-thieno[2,3-d]pyrimidine-6-carboxylic acid(pyridin-3-ylmethyl)-amide] |
